Assay results: paper PMC10555500, “Evaluation of the Antiproliferative Properties of CpRu Complexes Containing N-Methylated Triazaphosphaadamantane Derivatives” (Bioinorganic Chemistry and Applications, 2023)

Assay: Stability in DMSO-d6 and DMSO-d6/D2O monitored by 31P{1H} NMR
Type: physicochemical
From the text: The assessment of the biological properties of the complexes requires their dissolution in a cell culture medium which is mainly constituted by water. When the complex is not hydrosoluble enough, the used protocol contemplates preliminary dissolution in DMSO before the addition to the culture medium. Thus, it is important to determine the stability and behaviour of the complexes in both DMSO and water/DMSO mixtures to check whether different species have been formed when dissolved. Dissolutions in DMSO-d6 and DMSO-d6/D2O of the new complexes 8 and 11 were monitored by ^31P{^1H} NMR over time at room temperature and 37°C. The stability studies of the rest of the complexes (1‐7, 9, 10) were published previously. All experiments were performed by a similar procedure: the complex (0.01 g) was introduced into a 5 mm NMR tube and dissolved in 0.5 mL of degassed solvent (DMSO-d6 and a 1 : 1 mixture of DMSO-d6/D2O). The solution was left at room temperature and monitored by ^31P{^1H} NMR first every 15 minutes, and later in longer periods. Stability was also monitored at incubation cell-based assay temperature (37°C).
All compounds were studied for their stability in 100% DMSO-d6 and DMSO-d6/D2O mixture by using NMR spectroscopy in common aerobic conditions. All experiments were performed by a similar procedure: the complex (0.01 g) was introduced into a 5 mm NMR tube and dissolved in 0.5 mL of degassed solvent (DMSO-d6 and a 1:1 mixture of DMSO-d6/D2O). The solution was left at room temperature and monitored by ^31P{^1H} NMR first every 15 minutes, and later in longer time periods. Stability was also monitored at incubation cell-based assays temperature (37 °C).

Which results are given for `CN1CN2CN(C)C[P]([Ru+2]([P](c3ccccc3)(c3ccccc3)c3ccccc3)[P](c3ccccc3)(c3ccccc3)c3ccccc3)(C1)C2.O=S(=O)([O-])C(F)(F)F.[Cl][Pd][Cl].c1cc[cH-]c1` [Compound 11, [RuCp(PPh3)2-µ-dmoPTA-1κP-2κ^2N,N′-PdCl2](CF3SO3)]?
Fraction converted to complex 8 (solvolysis) in DMSO (DMSO-d6, visible after 4 h, constant up to 48 h): < 7%; Stability in DMSO-d6 (room temperature and 37°C, 48 h, 31P{1H} NMR): very stable
